Test results taken from patent US20220062240A1, “METHODS OF TREATING CANCER USING A CLK INHIBITOR” (BioSplice Therapeutics, Inc., priority 2018, published 2022).
pEC50: −log10 of the molar value. Read-outs that look alike come from different tables or passages of the source.

Columns and labels:
CLK2 = molecular target: T1, CLK2 (Homo sapiens, UniProt P49760); test: CLK2 kinase activity assay (Z-lyte, Ser/Thr 6 peptide); assay type: biochemical; conditions: recombinant CLK2 kinase, ATP 60 μM; read-out: EC50
T1 construct: purchased Thermo Fisher (Life Technologies), Z'-LYTE Kinase Assay Kits
Experimental: All reactions were performed in duplicate.

CLK3 = CLK3 (Homo sapiens, UniProt P49761); test: CLK3 kinase activity assay (Z-lyte, Ser/Thr 18 peptide)
[1] = test system: pancreatic cancer (8 cell lines); test: CellTiter-Glo Viability Assay, pancreatic cancer; assay type: cell-based; conditions: Homo sapiens, inhibition of cancer cell proliferation
[2] = test system: liver cancer (3 cell lines); test: CellTiter-Glo Viability Assay, liver cancer; assay type: cell-based; conditions: Homo sapiens, inhibition of cancer cell proliferation
BT-549 = test: CellTiter-Glo Viability Assay, breast cancer; assay type: cell-based; conditions: Homo sapiens, 96 h; BT-549, breast cancer, four days; read-out: EC50
HCC1599 = test: CellTiter-Glo Viability Assay, breast cancer; assay type: cell-based; conditions: Homo sapiens, 96 h; HCC1599, breast cancer, four days; read-out: EC50
ZR-75-1 = test: CellTiter-Glo Viability Assay, breast cancer; assay type: cell-based; conditions: Homo sapiens, 96 h; ZR-75-1, breast cancer, four days; read-out: EC50
MDA-MB-231-Luc = test: CellTiter-Glo Viability Assay, breast cancer; assay type: cell-based; conditions: Homo sapiens, 96 h; MDA-MB-231-Luc, breast cancer, four days; read-out: EC50
MCF7 = test: CellTiter-Glo Viability Assay, breast cancer; assay type: cell-based; conditions: Homo sapiens, 96 h; MCF7, breast cancer, four days; read-out: EC50
DU4475 = test: CellTiter-Glo Viability Assay, breast cancer; assay type: cell-based; conditions: Homo sapiens, DU-4475, 96 h; DU4475, breast cancer, four days; read-out: EC50
CAMA1 = test: CellTiter-Glo Viability Assay, breast cancer; assay type: cell-based; conditions: Homo sapiens, CAMA-1, 96 h; CAMA1, breast cancer, four days; read-out: EC50
T47D = test: CellTiter-Glo Viability Assay, breast cancer; assay type: cell-based; conditions: Homo sapiens, 96 h, breast cancer, four days, read-out: EC50
[3] = test system: haematopoietic & lymphoid tumors (13 cell lines); test: CellTiter-Glo Viability Assay, haematopoietic & lymphoid tumors; assay type: cell-based; conditions: Homo sapiens, inhibition of cancer cell proliferation
[4] = test system: colorectal cancer (6 cell lines); test: CellTiter-Glo Viability Assay, colorectal cancer; assay type: cell-based; conditions: Homo sapiens, inhibition of cancer cell proliferation
[5] = test system: prostate cancer (5 cell lines); test: CellTiter-Glo Viability Assay, prostate cancer; assay type: cell-based; conditions: Homo sapiens
all 50 cell lines = test: CellTiter-Glo Viability Assay, average across all cell lines; assay type: cell-based; conditions: Homo sapiens; across all 50 cell lines; read-out: average EC50 for inhibition of cancer cell proliferation
Outline: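 Human cancer cell lines from breast, colorectal, haematopoietic/lymphoid, liver, lung, ovarian, pancreatic and prostate tumours were seeded at 300-3,000 cells/well and exposed to compound in duplicate for four days at 37° C, 5% CO2. Viable cells were measured by ATP luminescence; EC50 values came from dose-response curves.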

[6] = test system: lung cancer (4 cell lines); test: CellTiter-Glo Viability Assay, lung cancer; assay type: cell-based; conditions: Homo sapiens, inhibition of cancer cell proliferation
[7] = test system: ovarian cancer (4 cell lines); test: CellTiter-Glo Viability Assay, ovarian cancer; assay type: cell-based; conditions: Homo sapiens, inhibition of cancer cell proliferation
[8] = BXPC-3, BxPC3 cell line, read-out: Pancreatic cancer, EC50 BxPC3
[9] = CAPAN-1, Capan1 cell line, read-out: Pancreatic cancer, EC50 Capan1
[10] = Capan-2, Capan2 cell line, read-out: Pancreatic cancer, EC50 Capan2
[11] = MIA PaCa-2 cell line, read-out: Pancreatic cancer, EC50 MIA PaCa-2
[12] = PANC 05.04 cell line, read-out: Pancreatic cancer, EC50 PANC 05.04
[13] = PANC-1 cell line, read-out: Pancreatic cancer, EC50 PANC-1
[14] = UPAFII cell line, read-out: Pancreatic cancer, EC50 UPAFII
[15] = SNU-398, SNU398 cell line, read-out: Liver cancer, EC50 SNU398
[16] = HEPG2 cell line, read-out: Liver cancer, EC50 HEPG2
[17] = PLC/PRF/5 cell line, read-out: Liver cancer, EC50 PLC/PRF/5
[18] = DND41, DND-41 cell line, read-out: Haematopoietic & Lymphoid tumors, EC50 (μM) DND-41
[19] = MV4-11, MV-4-11 cell line, read-out: Haematopoietic & Lymphoid tumors, EC50 (μM) MV-4-11
[20] = Rec1, REC-1 cell line, read-out: Haematopoietic & Lymphoid tumors, EC50 (μM) REC-1
[21] = SU-DHL-4, SUDHL4 cell line, read-out: Haematopoietic & Lymphoid tumors, EC50 (μM) SUDHL4
[22] = HL-60 cell line, read-out: Haematopoietic & Lymphoid tumors, EC50 (μM) HL-60
[23] = JM1 cell line, read-out: Haematopoietic & Lymphoid tumors, EC50 (μM) JM1
[24] = JURKAT, Clone E6-1 cell line, read-out: Haematopoietic & Lymphoid tumors, EC50 (μM) JURKAT, Clone E6-1
[25] = JeKo-1 cell line, read-out: Haematopoietic & Lymphoid tumors, EC50 (μM) JeKo-1
[26] = KASUMI-1 cell line, read-out: Haematopoietic & Lymphoid tumors, EC50 (μM) KASUMI-1
[27] = Loucy cell line, read-out: Haematopoietic & Lymphoid tumors, EC50 (μM) Loucy
[28] = MOLT-4 cell line, read-out: Haematopoietic & Lymphoid tumors, EC50 (μM) MOLT-4
[29] = TF-1 cell line, read-out: Haematopoietic & Lymphoid tumors, EC50 (μM) TF-1
[30] = TOLEDO cell line, read-out: Haematopoietic & Lymphoid tumors, EC50 (μM) TOLEDO
[31] = HCT-116, HCT116 cell line, read-out: Colorectal cancer, EC50 (μM) HCT116
[32] = HT-29, HT29 cell line, read-out: Colorectal cancer, EC50 (μM) HT29
[33] = SW-620, SW620 cell line, read-out: Colorectal cancer, EC50 (μM) SW620
[34] = DLD-1 cell line, read-out: Colorectal cancer, EC50 (μM) DLD-1
[35] = SW48 cell line, read-out: Colorectal cancer, EC50 (μM) SW48
[36] = SW480 cell line, read-out: Colorectal cancer, EC50 (μM) SW480
[37] = DU-145, read-out: Prostate cancer EC50 Du-145
[38] = PC-3, PC3 cell line, inhibition of cancer cell proliferation, read-out: Prostate cancer EC50 PC3
[39] = 22Rv1 cell line, inhibition of cancer cell proliferation, read-out: Prostate cancer EC50 22Rv1
[40] = LNCap clone FGC cell line, inhibition of cancer cell proliferation, read-out: Prostate cancer EC50 LNCap clone FGC
[41] = VCaP (Sigma) cell line, inhibition of cancer cell proliferation, read-out: Prostate cancer EC50 VCaP (Sigma)
[42] = A-427, A427 cell line, read-out: Lung cancer, EC50 (μM) A427
[43] = HCC78, HCC-78 cell line, read-out: Lung cancer, EC50 (μM) HCC-78
[44] = NCI-H460 cell line, read-out: Lung cancer, EC50 (μM) NCI-H460
[45] = NCI-H522 cell line, read-out: Lung cancer, EC50 (μM) NCI-H522

Sequence of CLK3 (P49761 whole entry): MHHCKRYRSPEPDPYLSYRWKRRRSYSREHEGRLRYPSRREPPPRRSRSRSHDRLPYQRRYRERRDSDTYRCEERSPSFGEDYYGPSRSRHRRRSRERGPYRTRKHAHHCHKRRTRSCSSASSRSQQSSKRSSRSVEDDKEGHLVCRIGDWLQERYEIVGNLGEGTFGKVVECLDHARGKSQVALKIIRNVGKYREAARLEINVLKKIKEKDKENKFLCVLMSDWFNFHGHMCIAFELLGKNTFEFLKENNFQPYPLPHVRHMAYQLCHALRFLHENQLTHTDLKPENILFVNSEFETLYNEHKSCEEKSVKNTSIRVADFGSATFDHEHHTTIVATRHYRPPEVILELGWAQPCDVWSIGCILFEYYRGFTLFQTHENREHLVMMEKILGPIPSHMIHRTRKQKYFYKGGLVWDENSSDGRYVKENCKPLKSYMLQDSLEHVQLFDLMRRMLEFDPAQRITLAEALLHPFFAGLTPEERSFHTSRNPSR
T1 sequence (P49760 whole entry): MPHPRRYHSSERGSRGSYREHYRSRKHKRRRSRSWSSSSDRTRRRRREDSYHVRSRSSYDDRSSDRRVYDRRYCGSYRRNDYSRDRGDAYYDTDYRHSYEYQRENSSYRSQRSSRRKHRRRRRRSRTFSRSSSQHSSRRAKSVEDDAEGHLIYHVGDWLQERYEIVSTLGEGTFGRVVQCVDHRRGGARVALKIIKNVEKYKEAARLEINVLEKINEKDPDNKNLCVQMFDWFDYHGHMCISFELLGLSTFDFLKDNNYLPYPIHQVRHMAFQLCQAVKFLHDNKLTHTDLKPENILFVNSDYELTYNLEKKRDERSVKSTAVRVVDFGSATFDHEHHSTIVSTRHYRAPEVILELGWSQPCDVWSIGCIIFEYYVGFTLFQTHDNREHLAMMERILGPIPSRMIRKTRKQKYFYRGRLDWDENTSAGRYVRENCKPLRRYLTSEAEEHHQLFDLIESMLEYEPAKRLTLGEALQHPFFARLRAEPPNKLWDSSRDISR

In the case of Cn1ncc(-c2ccc3cnc(NC(=O)c4cccc(CN5CCCC5)c4)cc3c2)c1CN1CCCCC1 [Compound 78], the pEC50 (CLK2) was 8.80, the pEC50 (CLK3) was 7.84 and the pEC50 [1, 8] was 5.95. It also gave a pEC50 [1, 9] of 6.20, a pEC50 [1, 10] of 5.98 and a pEC50 [1, 11] of 6.57. The pEC50 [1, 12] was 6.09, the pEC50 [1, 13] was 6.13 and the pEC50 [1, 14] was 6.42. It also gave a pEC50 [2, 15] of 6.88, a pEC50 [2, 16] of 6.07 and a pEC50 [2, 17] of 5.89. The pEC50 (BT-549) was 6.18, the pEC50 (HCC1599) was 6.29 and the pEC50 (ZR-75-1) was 6.15. It also gave a pEC50 (MDA-MB-231-Luc) of 6.17, a pEC50 (MCF7) of 5.85 and a pEC50 (DU4475) of 6.42. The pEC50 (CAMA1) was 6.25, the pEC50 (T47D) was 6.05 and the EC50 [3, 18] was 0.513 µM. For the same molecule, the EC50 [3, 19] was 0.099 µM, the EC50 [3, 20] was 0.164 µM and the EC50 [3, 21] was 0.62 µM. The EC50 [3, 22] was 1.29 µM, the EC50 [3, 23] was 0.177 µM and the EC50 [3, 24] was 0.976 µM. It also gave an EC50 [3, 25] of 0.228 µM, an EC50 [3, 26] of 0.363 µM and an EC50 [3, 27] of 0.522 µM. It also gave an EC50 [3, 28] of 0.562 µM, an EC50 [3, 29] of 0.897 µM and an EC50 [3, 30] of 0.156 µM. The EC50 [4, 31] was 0.38 µM, the EC50 [4, 32] was 0.674 µM and the EC50 [4, 33] was 0.198 µM. It also gave an EC50 [4, 34] of 0.499 µM, an EC50 [4, 35] of 0.182 µM and an EC50 [4, 36] of 0.404 µM. The pEC50 [5, 37] was 6.15, the pEC50 [5, 38] was 6.17 and the pEC50 [5, 39] was 6.28. For the same molecule, the pEC50 [5, 40] was 6.02, the pEC50 [5, 41] was 6.26 and the pEC50 (all 50 cell lines) was 6.21. It also gave an EC50 [6, 42] of 0.672 µM, an EC50 [6, 43] of 1.1 µM and an EC50 [6, 44] of 0.856 µM. It also gave an EC50 [6, 45] of 0.395 µM.
For COc1ccc(NC(=O)c2n[nH]c3ccc(-c4cncc(CN5CCCCC5)c4)cc23)cn1 [Compound 59], the pEC50 (CLK3) was 7.21, the pEC50 [1, 8] was 5.98 and the pEC50 [1, 9] was 6.64. The pEC50 [1, 10] was 7.26, the pEC50 [1, 11] was 6.76 and the pEC50 [1, 12] was 6.65. For the same molecule, the pEC50 [1, 13] was 6.18, the pEC50 [1, 14] was 6.55 and the EC50 ([7]; PA-1, PA1 cell line, read-out: Ovarian cancer, EC50 (μM) PA1) was 0.27 µM. The EC50 ([7]; TOV112D, TOV-112D cell line, read-out: Ovarian cancer, EC50 (μM) TOV-112D) was 0.264 µM, the EC50 ([7]; OV-90 cell line, read-out: Ovarian cancer, EC50 (μM) OV-90) was 0.936 µM and the EC50 ([7]; OVCAR-3 cell line, read-out: Ovarian cancer, EC50 (μM) OVCAR-3) was 0.1 µM. For the same molecule, the pEC50 [2, 15] was 6.79, the pEC50 [2, 16] was 6.37 and the pEC50 [2, 17] was 5.99. The pEC50 (BT-549) was 6.33, the pEC50 (HCC1599) was 6.54 and the pEC50 (ZR-75-1) was 6.19. It also gave a pEC50 (MDA-MB-231-Luc) of 6.20, a pEC50 (MCF7) of 6.07 and a pEC50 (DU4475) of 6.75. The pEC50 (CAMA1) was 6.46, the pEC50 (T47D) was 6.14 and the EC50 [3, 18] was 0.529 µM. It also gave an EC50 [3, 19] of 0.077 µM, an EC50 [3, 20] of 0.133 µM and an EC50 [3, 21] of 0.525 µM. For the same molecule, the EC50 [3, 22] was 1.24 µM, the EC50 [3, 23] was 0.115 µM and the EC50 [3, 24] was 1.02 µM. The EC50 [3, 25] was 0.141 µM, the EC50 [3, 26] was 0.157 µM and the EC50 [3, 27] was 0.304 µM. The EC50 [3, 28] was 0.689 µM, the EC50 [3, 29] was 0.41 µM and the EC50 [3, 30] was 0.121 µM. For the same molecule, the EC50 [4, 31] was 0.193 µM, the EC50 [4, 32] was 0.666 µM and the EC50 [4, 33] was 0.187 µM. It also gave an EC50 [4, 34] of 0.376 µM, an EC50 [4, 35] of 0.132 µM and an EC50 [4, 36] of 0.353 µM. For the same molecule, the pEC50 [5, 37] was 6.25, the pEC50 [5, 38] was 6.40 and the pEC50 [5, 39] was 6.60. The pEC50 [5, 40] was 6.26, the pEC50 [5, 41] was 6.21 and the pEC50 (all 50 cell lines) was 6.36. For the same molecule, the EC50 [6, 42] was 0.443 µM, the EC50 [6, 43] was 0.997 µM and the EC50 [6, 44] was 0.32 µM. For the same molecule, the EC50 [6, 45] was 0.19 µM.
